Non-standard residues stand in square brackets, D forms with d. Residues, ends and D or L forms follow the SMILES beside them. *: point of attachment. Palmitoyl = CCCCCCCCCCCCCCCC(=O)*
Tested on: MDA-MB-231 triple-negative human breast cancer cells
Test: Cell Titer Blue in vitro cell viability assay, MDA-MB-231
Assay type: cell-based
Details: MDA-MB-231 (DMEM); for IC50: MDA-MB-231, 72 h, 3 days at 37° C.
Description: FIG. 1: Dose Response curve for MBC017 with MDA-MB-231 cells. Compound MBC017 was incubated with MDA-MB-231 triple-negative human breast cancer cells at the indicated concentrations for 3 days at 37° C. prior to Cell Titer Blue fluorescence-based cell viability assay. Normalized cell viability data, expressed as a percentage, are averaged from three biological replicates and standard error represented by error bars for each averaged data point (empty squares). The compound concentrations are represented on log scale on the x-axis in μM units. Data were analyzed using free software called DrFit, as described in Nature Scientific Reports, Article number: 14701, (2015). […] The data were not sufficient to calculate an accurate IC50 value.
A commercially available in vitro cell viability reagent (Cell Titer Blue) was employed to determine the anti-cancer effectiveness of several compounds (1-5) against multiple cancer and healthy tissue-derived cell lines. Cell lines are summarized in Table 2, as follows: All cell lines and information on each cell lines origins and characteristics were procured from ATCC (www.atcc.org). Common names and ATCC product IDs are shown in the first (leftmost) column. From the left, the second and third columns describe the organism and tissue from which each cell line was isolated. The fourth and fifth columns indicate the cell type and disease status (e.g. normal versus carcinoma) of each cell line. The sixth column provides a summary of what compounds were tested against each cell line using an in vitro cell viability assay. Peptide name IDs are shown in parenthesis for each compound, numbered 1 through 5.
The Cell Titer Blue reagent (available from Promega, Inc.) is a buffered solution containing resazurin, a compound that is converted to resorufin, a detectable fluorescent product, by metabolically active cells. The fluorescence intensity of resorufin product therefore serves as a proportional measure of the number of viable cells, permitting changes in cell viability within cancer or other cell lines to be monitored in response to the addition of cytotoxic or cytostatic agents. Various human breast tissue-derived cell lines are widely employed to study the effects of potential therapeutics against breast cancer in vitro. Human breast cancer cell lines may be subdivided into groups based upon hormone receptor status, i.e. estrogen, progesterone and human epidermal growth factor positive or negative. A healthy human breast tissue-derived cell line, hTERT-HME1 may be used to determine the effect of therapeutic agents on healthy human breast tissue in vitro. Additionally, a highly metastatic and aggressive murine (mouse) breast cancer cell line, 4T1, has been extensively used to monitor breast cancer metastasis from the mammary fat pads of mice to the lungs in order to systematically survey the anti-metastatic effectiveness of anti-cancer therapeutics in an in vivo animal model. Metastases to the lungs may be conveniently quantified by a well-established clonogenic assay. Other human tissue-derived model cell lines, representative of various cancers, other than breast cancer, may be utilized to assess the potential of anti-cancer compounds in vitro. These include, K-562 (chronic myelogenous leukemia), HEPG2 (hepatocellular carcinoma), OVCAR-3 (ovarian adenocarcinoma), SK—N—SH (neuroblastoma) and A549 (lung carcinoma). Several compounds were assayed in vitro using the Cell Titer Blue viability assay against an array of cancer cell lines of both human and murine origin plus one healthy human breast cell line (Table 1, FIGS. 1-16). A mouse 4T1 metastasis study was performed to determine the anti-metastatic potential of one compound, MBC0179 (FIG. 17).
Dimethyl sulfoxide (DMSO), Cremophor EL, methylene blue, 100× antibiotic/antimycotic solution, collagenase (Type IV), DNAse I and 6-thioguanine were available from Millipore-Sigma. […]

Row | Compound | cytotoxicity at 125 µM (72 h, 125 μM, relative to vehicle, 3 days of incubation, read-out: reduction in viability) [%] | IC50 [µM]
1 | CCCCCCCCCCCCCCCC(=O)N[C@@H](Cc1c[nH]cn1)C(=O)N[C@H](C(=O)O)C(C)C [Compound 1, N-[N-(1-oxohexadecyl)-L-histidyl]-L-valine] (Palmitoyl-His-Val-OH) | ~40 | 
2 | CCCCCCCCCCCCCCCC(=O)N[C@@H](Cc1c[nH]cn1)C(=O)N[C@H](C(=O)O)[C@@H](C)CC [Compound 2, N-[N-(1-oxohexadecyl)-L-histidyl]-L-isoleucine] (Palmitoyl-His-Ile-OH) |  | 6730
3 | CCCCCCCCCCCCCCCC(=O)N[C@@H](Cc1c[nH]cn1)C(=O)N[C@H](C(=O)OCC)C(C)C [Compound 3, N-[N-(1-oxohexadecyl)-L-histidyl]-L-valine ethyl ester] (Palmitoyl-His-Val-OEt) |  | 13.1
4 | CCCCCCCCCCCCCCCC(=O)N[C@H](Cc1c[nH]cn1)C(=O)N[C@@H](C(=O)O)C(C)C [Compound 4, N-[N-(1-oxohexadecyl)-D-histidyl]-D-valine] (Palmitoyl-[dH]-[dV]-OH) |  | 62.1
